Measurements as given in patent US10259810B2, “N-sulfonylated pyrazolo[3,4-b]pyridin-6-carboxamides and method of use” (AbbVie S.à.r.l., priority 2015, dated 2019).

What was measured:
ΔF508-CFTR [1] = target: T1, ΔF508-CFTR (Homo sapiens, UniProt P13569, DEL508-508); experiment: CFTR cell surface levels using HRP-tagged ΔF508-CFTR expressing CFBE cells, intrinsic corrector capacity; format: cell-based; design: % Activation: concentration or dose not given beside the values; conditions: HRP-tagged ΔF508-CFTR expressing CFBE41o- cells, compound alone (intrinsic corrector capacity), 20 hours at 33° C.; for EC50: read-out: EC50
T1 construct: host or cells: CFBE41o-, doxycycline-inducible
Summary of the method: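 Surface ΔF508-CFTR was measured as HRP chemiluminescence from an extracellular-loop-4 tag, expressed as percent activity between DMSO and a […] corrector control.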

ΔF508-CFTR [2] = target: T1, ΔF508-CFTR; experiment: CFTR cell surface levels using HRP-tagged ΔF508-CFTR expressing CFBE cells, in the presence of a co-corrector; format: cell-based; conditions: HRP-tagged ΔF508-CFTR CFBE cells, in the presence of 3 μM co-corrector; for EC50: read-out: EC50
Summary of the method: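 Chemiluminescent read-out of surface HRP (15 min, dark) after PBS washes. Activity is normalized as 100×(sample−DMSO)/(3 μM co-corrector alone−DMSO).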

T1 sequence (P13569 with tags, fused parts or gaps DEL508-508): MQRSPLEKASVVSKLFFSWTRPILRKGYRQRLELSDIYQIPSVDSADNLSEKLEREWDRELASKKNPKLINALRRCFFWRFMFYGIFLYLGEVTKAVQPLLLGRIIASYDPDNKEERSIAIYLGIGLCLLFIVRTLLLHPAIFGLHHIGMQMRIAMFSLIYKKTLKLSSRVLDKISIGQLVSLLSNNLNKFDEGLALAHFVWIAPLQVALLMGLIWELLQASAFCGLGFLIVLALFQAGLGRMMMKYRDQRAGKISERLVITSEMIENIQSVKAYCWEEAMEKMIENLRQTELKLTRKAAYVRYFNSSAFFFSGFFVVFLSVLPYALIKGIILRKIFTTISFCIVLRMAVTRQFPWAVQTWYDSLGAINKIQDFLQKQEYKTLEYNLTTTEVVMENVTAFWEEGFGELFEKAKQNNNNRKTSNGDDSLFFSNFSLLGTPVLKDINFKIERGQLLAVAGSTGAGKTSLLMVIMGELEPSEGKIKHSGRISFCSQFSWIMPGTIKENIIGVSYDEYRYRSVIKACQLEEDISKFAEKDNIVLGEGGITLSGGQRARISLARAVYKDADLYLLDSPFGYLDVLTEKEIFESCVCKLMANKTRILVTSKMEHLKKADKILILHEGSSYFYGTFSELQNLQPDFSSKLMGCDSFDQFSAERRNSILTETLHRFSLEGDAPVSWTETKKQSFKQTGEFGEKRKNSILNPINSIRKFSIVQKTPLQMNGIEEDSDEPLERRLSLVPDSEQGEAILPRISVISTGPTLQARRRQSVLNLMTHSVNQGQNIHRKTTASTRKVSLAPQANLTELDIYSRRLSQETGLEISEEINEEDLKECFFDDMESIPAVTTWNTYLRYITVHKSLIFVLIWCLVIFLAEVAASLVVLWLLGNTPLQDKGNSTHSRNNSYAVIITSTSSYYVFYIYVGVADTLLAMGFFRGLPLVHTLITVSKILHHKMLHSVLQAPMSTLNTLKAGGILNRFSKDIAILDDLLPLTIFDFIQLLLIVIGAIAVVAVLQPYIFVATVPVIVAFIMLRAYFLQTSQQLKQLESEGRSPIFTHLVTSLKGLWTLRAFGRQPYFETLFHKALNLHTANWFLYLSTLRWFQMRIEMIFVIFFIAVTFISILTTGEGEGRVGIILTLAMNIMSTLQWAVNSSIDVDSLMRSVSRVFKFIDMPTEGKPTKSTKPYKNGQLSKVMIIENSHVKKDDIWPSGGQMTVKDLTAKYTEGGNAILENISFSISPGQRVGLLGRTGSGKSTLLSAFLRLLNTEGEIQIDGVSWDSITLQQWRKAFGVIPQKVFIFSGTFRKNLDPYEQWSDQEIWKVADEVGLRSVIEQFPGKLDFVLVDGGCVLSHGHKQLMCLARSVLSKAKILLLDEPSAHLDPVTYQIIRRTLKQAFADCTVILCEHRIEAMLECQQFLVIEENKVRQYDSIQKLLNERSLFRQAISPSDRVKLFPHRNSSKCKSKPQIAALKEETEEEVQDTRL

CCOC(=O)N1CCC(c2cc(C(=O)NS(=O)(=O)N(C)C)nc3c2c(C(C)C)nn3-c2ccc(F)cc2)CC1 [Compound 497, ethyl 4-{6-[(dimethylsulfamoyl)carbamoyl]-1-(4-fluorophenyl)-3-(propan-2-yl)-1H-pyrazolo[3,4-b]pyridin-4-yl}piperidine-1-carboxylate] was tested, and the “% Activation” value (ΔF508-CFTR [1]) was 195.7%, the EC50 (ΔF508-CFTR [1]) was 0.41 µM and the “% Activation” value (ΔF508-CFTR [2]) was 378.25%. It also gave an EC50 (ΔF508-CFTR [2]) of 0.288 µM.
Cc1cccc(-n2nc(C3CCC3)c3c(N4CCC(N5CCOCC5)CC4)cc(C(=O)NS(=O)(=O)N(C)C)nc32)c1 [Compound 498, 3-cyclobutyl-N-(dimethylsulfamoyl)-1-(3-methylphenyl)-4-[4-(morpholin-4-yl)piperidin-1-yl]-1H-pyrazolo[3,4-b]pyridine-6-carboxamide] was tested, and the “% Activation” value (ΔF508-CFTR [1]) was 288.1%, the EC50 (ΔF508-CFTR [1]) was 0.144 µM and the “% Activation” value (ΔF508-CFTR [2]) was 456.3%. It also gave an EC50 (ΔF508-CFTR [2]) of 0.0951 µM.
COc1cccc(-n2nc(C3CCC3)c3c(N4CCC(N5CCOCC5)CC4)cc(C(=O)NS(=O)(=O)N(C)C)nc32)c1 [Compound 499, 3-cyclobutyl-N-(dimethylsulfamoyl)-1-(3-methoxyphenyl)-4-[4-(morpholin-4-yl)piperidin-1-yl]-1H-pyrazolo[3,4-b]pyridine-6-carboxamide] was tested, and the “% Activation” value (ΔF508-CFTR [1]) was 287.5%, the EC50 (ΔF508-CFTR [1]) was 0.186 µM and the “% Activation” value (ΔF508-CFTR [2]) was 439.6%. It also gave an EC50 (ΔF508-CFTR [2]) of 0.0712 µM.
With CN(C)S(=O)(=O)NC(=O)c1cc(N2CCC(N3CCOCC3)CC2)c2c(C3CCC3)nn(-c3ccc(C(F)(F)F)cc3)c2n1 [Compound 500, 3-cyclobutyl-N-(dimethylsulfamoyl)-4-[4-(morpholin-4-yl)piperidin-1-yl]-1-[4-(trifluoromethyl)phenyl]-1H-pyrazolo[3,4-b]pyridine-6-carboxamide] the “% Activation” value (ΔF508-CFTR [1]) was 137.5%, the EC50 (ΔF508-CFTR [1]) was 0.173 µM and the “% Activation” value (ΔF508-CFTR [2]) was 330.05%. For the same compound, the EC50 (ΔF508-CFTR [2]) was 0.0842 µM.
For CCOCC1(F)CCN(c2cc(C(=O)NS(C)(=O)=O)nc3c2c(C2CCC2)nn3-c2ccccc2)CC1 [Compound 501, 3-cyclobutyl-4-[4-(ethoxymethyl)-4-fluoropiperidin-1-yl]-N-(methanesulfonyl)-1-phenyl-1H-pyrazolo[3,4-b]pyridine-6-carboxamide], the “% Activation” value (ΔF508-CFTR [1]) was 188.7%, the EC50 (ΔF508-CFTR [1]) was 0.211 µM and the “% Activation” value (ΔF508-CFTR [2]) was 403.55%. The EC50 (ΔF508-CFTR [2]) was 0.124 µM.
In the case of COCCOCC1(F)CCN(c2cc(C(=O)NS(C)(=O)=O)nc3c2c(C2CCC2)nn3-c2ccccc2)CC1 [Compound 502, 3-cyclobutyl-4-{4-fluoro-4-[(2-methoxyethoxy)methyl]piperidin-1-yl}-N-(methanesulfonyl)-1-phenyl-1H-pyrazolo[3,4-b]pyridine-6-carboxamide], the “% Activation” value (ΔF508-CFTR [1]) is reported as 214.2%, the EC50 (ΔF508-CFTR [1]) is reported as 0.345 µM and the “% Activation” value (ΔF508-CFTR [2]) is reported as 383.8%. It also gave an EC50 (ΔF508-CFTR [2]) of 0.177 µM.
COCCOCC1(F)CCCN(c2cc(C(=O)NS(C)(=O)=O)nc3c2c(C2CCC2)nn3-c2ccccc2)C1 (centres unmarked) [Compound 503, 3-cyclobutyl-4-{3-fluoro-3-[(2-methoxyethoxy)methyl]piperidin-1-yl}-N-(methanesulfonyl)-1-phenyl-1H-pyrazolo[3,4-b]pyridine-6-carboxamide] was tested, and the “% Activation” value (ΔF508-CFTR [1]) was 203.4%, the EC50 (ΔF508-CFTR [1]) was 0.419 µM and the “% Activation” value (ΔF508-CFTR [2]) was 433.2%. The EC50 (ΔF508-CFTR [2]) was 0.405 µM.
With COCC1(F)CCN(c2cc(C(=O)NS(C)(=O)=O)nc3c2c(C2CCC2)nn3-c2ccccc2)CC1 [Compound 504, 3-cyclobutyl-4-[4-fluoro-4-(methoxymethyl)piperidin-1-yl]-N-(methanesulfonyl)-1-phenyl-1H-pyrazolo[3,4-b]pyridine-6-carboxamide] the “% Activation” value (ΔF508-CFTR [1]) was 206.4%, the EC50 (ΔF508-CFTR [1]) was 0.301 µM and the “% Activation” value (ΔF508-CFTR [2]) was 404.8%. It also gave an EC50 (ΔF508-CFTR [2]) of 0.21 µM.
With N#CC1CCN(S(=O)(=O)NC(=O)c2cc(N3CCC(N4CCOCC4)CC3)c3c(C4CCC4)nn(-c4ccc(F)cc4)c3n2)CC1 [Compound 505, N-(4-cyanopiperidine-1-sulfonyl)-3-cyclobutyl-1-(4-fluorophenyl)-4-[4-(morpholin-4-yl)piperidin-1-yl]-1H-pyrazolo[3,4-b]pyridine-6-carboxamide] the “% Activation” value (ΔF508-CFTR [1]) was 187.5%, the EC50 (ΔF508-CFTR [1]) was 0.0926 µM and the “% Activation” value (ΔF508-CFTR [2]) was 389%. It also gave an EC50 (ΔF508-CFTR [2]) of 0.0541 µM.
For O=C(NS(=O)(=O)C1COC1)c1cc(N2CCC(N3CCOCC3)CC2)c2c(C3CCC3)nn(-c3ccc(F)cc3)c2n1 [Compound 506, 3-cyclobutyl-1-(4-fluorophenyl)-4-[4-(morpholin-4-yl)piperidin-1-yl]-N-(oxetane-3-sulfonyl)-1H-pyrazolo[3,4-b]pyridine-6-carboxamide], the “% Activation” value (ΔF508-CFTR [1]) was 144.1%, the EC50 (ΔF508-CFTR [1]) was 3.33 µM and the “% Activation” value (ΔF508-CFTR [2]) was 308.95%. For the same compound, the EC50 (ΔF508-CFTR [2]) was 0.941 µM.
With O=C(NS(=O)(=O)C1CC1)c1cc(N2CCC(N3CCOCC3)CC2)c2c(C3CCC3)nn(-c3ccc(F)cc3)c2n1 [Compound 507, 3-cyclobutyl-N-(cyclopropanesulfonyl)-1-(4-fluorophenyl)-4-[4-(morpholin-4-yl)piperidin-1-yl]-1H-pyrazolo[3,4-b]pyridine-6-carboxamide] the “% Activation” value (ΔF508-CFTR [1]) was 309.4%, the EC50 (ΔF508-CFTR [1]) was 0.137 µM and the “% Activation” value (ΔF508-CFTR [2]) was 580.4%. The EC50 (ΔF508-CFTR [2]) was 0.0954 µM.
For CC1(S(=O)(=O)NC(=O)c2cc(N3CCC(N4CCOCC4)CC3)c3c(C4CCC4)nn(-c4ccc(F)cc4)c3n2)CC1 [Compound 508, 3-cyclobutyl-1-(4-fluorophenyl)-N-(1-methylcyclopropane-1-sulfonyl)-4-[4-(morpholin-4-yl)piperidin-1-yl]-1H-pyrazolo[3,4-b]pyridine-6-carboxamide], the “% Activation” value (ΔF508-CFTR [1]) was 217.5%, the EC50 (ΔF508-CFTR [1]) was 0.182 µM and the “% Activation” value (ΔF508-CFTR [2]) was 448.8%. It also gave an EC50 (ΔF508-CFTR [2]) of 0.0903 µM.
For Cc1cccc(-n2nc(C3CCC3)c3c(N4CCC(N5CCOCC5)CC4)cc(C(=O)NS(C)(=O)=O)nc32)c1 [Compound 509, 3-cyclobutyl-N-(methanesulfonyl)-1-(3-methylphenyl)-4-[4-(morpholin-4-yl)piperidin-1-yl]-1H-pyrazolo[3,4-b]pyridine-6-carboxamide], the “% Activation” value (ΔF508-CFTR [1]) was 333.2%, the EC50 (ΔF508-CFTR [1]) was 0.327 µM and the “% Activation” value (ΔF508-CFTR [2]) was 527.9%. It also gave an EC50 (ΔF508-CFTR [2]) of 0.118 µM.
CS(=O)(=O)NC(=O)c1cc(N2CCC(N3CCOCC3)CC2)c2c(C3CCC3)nn(-c3ccc(C(F)(F)F)cc3)c2n1 [Compound 510, 3-cyclobutyl-N-(methanesulfonyl)-4-[4-(morpholin-4-yl)piperidin-1-yl]-1-[4-(trifluoromethyl)phenyl]-1H-pyrazolo[3,4-b]pyridine-6-carboxamide] was tested, and the “% Activation” value (ΔF508-CFTR [1]) was 234.9%, the EC50 (ΔF508-CFTR [1]) was 0.298 µM and the “% Activation” value (ΔF508-CFTR [2]) was 428.8%. The EC50 (ΔF508-CFTR [2]) was 0.171 µM.
In the case of Cc1cc(-n2nc(C3CCC3)c3c(N4CCC(N5CCOCC5)CC4)cc(C(=O)NS(=O)(=O)N(C)C)nc32)ccc1F [Compound 511, 3-cyclobutyl-N-(dimethylsulfamoyl)-1-(4-fluoro-3-methylphenyl)-4-[4-(morpholin-4-yl)piperidin-1-yl]-1H-pyrazolo[3,4-b]pyridine-6-carboxamide], the “% Activation” value (ΔF508-CFTR [1]) is reported as 248.55%, the EC50 (ΔF508-CFTR [1]) is reported as 0.0883 µM and the “% Activation” value (ΔF508-CFTR [2]) is reported as 432.95%. For the same compound, the EC50 (ΔF508-CFTR [2]) was 0.0789 µM.
With CN(C)S(=O)(=O)NC(=O)c1cc(N2CCC(N3CCOCC3)CC2)c2c(C3CCC3)nn(-c3cccc(F)c3)c2n1 [Compound 512, 3-cyclobutyl-N-(dimethylsulfamoyl)-1-(3-fluorophenyl)-4-[4-(morpholin-4-yl)piperidin-1-yl]-1H-pyrazolo[3,4-b]pyridine-6-carboxamide] the “% Activation” value (ΔF508-CFTR [1]) was 222.27%, the EC50 (ΔF508-CFTR [1]) was 0.121 µM and the “% Activation” value (ΔF508-CFTR [2]) was 415.25%. The EC50 (ΔF508-CFTR [2]) was 0.0653 µM.
CN(C)S(=O)(=O)NC(=O)c1cc(N2CCC(N3CCOCC3)CC2)c2c(C3CCC3)nn(-c3cccc(C(F)(F)F)c3)c2n1 [Compound 513, 3-cyclobutyl-N-(dimethylsulfamoyl)-4-[4-(morpholin-4-yl)piperidin-1-yl]-1-[3-(trifluoromethyl)phenyl]-1H-pyrazolo[3,4-b]pyridine-6-carboxamide] was tested, and the “% Activation” value (ΔF508-CFTR [1]) was 278.5%, the EC50 (ΔF508-CFTR [1]) was 0.101 µM and the “% Activation” value (ΔF508-CFTR [2]) was 476.3%. It also gave an EC50 (ΔF508-CFTR [2]) of 0.0667 µM.
Cc1cc(-n2nc(C3CCC3)c3c(N4CCC(N5CCOCC5)CC4)cc(C(=O)NS(C)(=O)=O)nc32)ccc1F [Compound 514, 3-cyclobutyl-1-(4-fluoro-3-methylphenyl)-N-(methanesulfonyl)-4-[4-(morpholin-4-yl)piperidin-1-yl]-1H-pyrazolo[3,4-b]pyridine-6-carboxamide] was tested, and the “% Activation” value (ΔF508-CFTR [1]) was 301.4%, the EC50 (ΔF508-CFTR [1]) was 0.15 µM and the “% Activation” value (ΔF508-CFTR [2]) was 540.3%. It also gave an EC50 (ΔF508-CFTR [2]) of 0.0971 µM.
For CS(=O)(=O)NC(=O)c1cc(N2CCC(N3CCOCC3)CC2)c2c(C3CCC3)nn(-c3cccc(F)c3)c2n1 [Compound 515, 3-cyclobutyl-1-(3-fluorophenyl)-N-(methanesulfonyl)-4-[4-(morpholin-4-yl)piperidin-1-yl]-1H-pyrazolo[3,4-b]pyridine-6-carboxamide], the “% Activation” value (ΔF508-CFTR [1]) was 287.1%, the EC50 (ΔF508-CFTR [1]) was 0.179 µM and the “% Activation” value (ΔF508-CFTR [2]) was 479.2%. It also gave an EC50 (ΔF508-CFTR [2]) of 0.0529 µM.
With CS(=O)(=O)NC(=O)c1cc(N2CCC(N3CCOCC3)CC2)c2c(C3CCC3)nn(-c3cccc(C(F)(F)F)c3)c2n1 [Compound 516, 3-cyclobutyl-N-(methanesulfonyl)-4-[4-(morpholin-4-yl)piperidin-1-yl]-1-[3-(trifluoromethyl)phenyl]-1H-pyrazolo[3,4-b]pyridine-6-carboxamide] the “% Activation” value (ΔF508-CFTR [1]) was 322.7%, the EC50 (ΔF508-CFTR [1]) was 0.12 µM and the “% Activation” value (ΔF508-CFTR [2]) was 545.3%. It also gave an EC50 (ΔF508-CFTR [2]) of 0.0566 µM.
